According to patent publication US20130150430A1, “Methods for Impairing the P53/HDM2 Auto-Regulatory Loop in Multiple Myeloma Development Using mIR-192, mIR-194 and mIR-215” (THE OHIO STATE UNIVERSITY, priority 2011, published 2013):

Columns and labels:
Format in all cases: cell-based, human
[1] = system: p53, MDM2 and p21 in MM1s and NCI-H929 cells; assay: Western blot of p53, MDM2, p21 after miRNA or ASO transfection and Nutlin-3a; details: 72 hr after transfection, 12 hr Nutlin-3a (10 μM); for expression of MDM2 protein: both cell lines; for level of p53 and p21: vs Scr-transfected cells, p<0.001
Description: FIG. 4A: MM1s and NCIH929 cells (pre-miRNA-192, pre-miRNA-194, pre-miRNA-215, Scr sequence-transfected) were harvested at 72 hr after transfection and 12 hr Nutlin-3a treatment (10 μM). Whole cell lysates were subjected to Western blotting using p53, MDM2, p21, and Gapdh antibodies. Densitometric analysis showing the effect of miR-194 (white bars), miR-192 (grey bars), miR-215 (black bars) compared to Scr sequence (green bars) transfected cells of endogenous p53, MDM2 and p21 in MM1s (FIG. 4B) and NCI-H929 (FIG. 4C) Nutlin-3a treated.
FIG. 4D: Immununoblot analysis showing p53, MDM2 and p21 protein expression after 48 hr of miR192, miR-194, miR-215 (pool) and Scr ASOs transfection in MM1s and NCI-H929 cells after 12 hr of treatment with 10 μM Nutlin-3a.
(§1) Samples were extracted in 15 mM Tris.Cl, pH 7.5/120 mM NaCl/25 mM KCl/2 mM EGTA/0.1 mM DTT/0.5% Triton X-100/[…] leupeptin/0.5 mM PMSF. Total protein (35 μg) from each sample was separated on a 4-20% Tris-HCl-Criterion precast gel Bio-Rad (cat#345-0032, Hercules, Calif.) and transferred to a poly(vinylidene difluoride) filter (Millipore). The filter was blocked in 5% nonfat dry milk, incubated with the specific antibody, washed, and probed with secondary antibody IgG conjugated to horseradish peroxidase (Santa Cruz Biotechnology), and developed with enhanced chemiluminescence (Amersham Pharmacia). Immunoblot analyses were performed using the following antibodies: p53 (sc-53394, Santa Cruz Biotechnology), MDM2 (sc-965, Santa Cruz Biotechnology), phospho-MDM2 (Cat#3521, Cell Signaling), c-MYC (cs-40, Santa Cruz Biotechnology), IGF-1 (sc-9013, Santa Cruz Biotechnology), IGF-1R (Cat#3027, Cell Signaling), total-Akt (Cat#9272, Cell signaling), phospho-Akt (Cat#4060, Cell Signaling), total-S6 (Cat#2217, Cell Signaling), phospho-S6 (Cat#2211, Cell Signaling), p21 (sc-817, Santa Cruz Biotechnology), α-PUMA (Cat#4976, Cell Signaling), GAPDH (Cat#2118, Cell Signaling). Filters were reprobed with enzyme-conjugated antibodies to GFP and β-actin (Santa Cruz Biotechnology).
MM cells (from MM subjects or from cell lines) non-transfected or transfected with pre- or ASOs miR-192, miR-215, miR-194 and Scr sequence as described above, were treated with MDM2 inhibitor (Nutlin3a and MI-219). Fresh CD138+ primary PCs isolated from new diagnosed MM subjects as previously described were maintained in culture for 24 hr and then treated for 24 hr with 10 μM Nutlin-3a (Cayman Chemical Company) or vehicle (DMSO). For transfected cells at 24 hrs after transfection MM cells were treated with 10 μM Nutlin-3a (Cayman Chemical Company) or DMSO vehicle only at different time points. […]

[2] = system: p53, MDM2, p21 and Puma in MM1s cells; assay: Western blot and densitometry in miRNA-transfected cells treated with MI-219; details: for p53 protein in cells not treated with MI-219: forced miRNA expression, untreated MM1s cells, p<0.05; for p53 re-expression with p21 and Puma up-regulation: miRNA-transfected MM1s cells, 24 hr of 2.5 μM MI-219
Description: FIG. 5A: Effects of miR-192, miR-194 and miR-215 on endogenous p53, p21 and MDM2 levels (Western blots) in MM1s cells treated with MI-219 at different concentrations.
FIG. 5B: Densitometric analysis only for p53 in untreated cells and for p53 and MDM2 protein levels in 2.5, 5 and 10 μM MI-219-treated cells. All experiments were performed in triplicate ±SD.
as §1
MM cells (from MM subjects or from cell lines) non-transfected or transfected with pre- or ASOs miR-192, miR-215, miR-194 and Scr sequence as described above, were treated with MDM2 inhibitor (Nutlin3a and MI-219). Fresh CD138+ primary PCs isolated from new diagnosed MM subjects as previously described were maintained in culture for 24 hr and then treated for 24 hr with 10 μM Nutlin-3a (Cayman Chemical Company) or vehicle (DMSO). For transfected cells at 24 hrs after transfection MM cells were treated with 10 μM Nutlin-3a (Cayman Chemical Company) or DMSO vehicle only at different time points. MMIS cells were also treated with MI-219 solution (10% PEG400/3% Cremophor EL/87% 1×PBS) or only vehicle (10% PEG400/3% Cremophor EL/87% 1×PBS) at different concentration (2.5, 5 and 10 μM) for 24 hr and collected for RNA and protein extractions.

[3] = system: HDM2 3′UTR; assay: Luciferase reporter assay, pGL3-MDM2-3'UTR; details: MM1s cells, construct containing all MREs
Description: FIG. 4G: miRNAs predicted to interact with HDM2 gene in several consensus binding sites (x) at its 3′-UTR, according to “in silico” RNA-22 prediction software. Luciferase assay showing decreased luciferase activity in cells co-transfected with pGL3-MDM2-3′UTR and miR-192, miR-194, miR-215 and Scr sequence. See also FIG. 18. All experiments were performed in triplicate ±SD.
To verify that HDM2 is a direct target of miR-192, miR-194 and miR-215, HDM2 3′UTR containing all MREs (˜4K), was cloned into pGL3 basic construct downstream of the luciferase open reading frame (FIG. 4D). This reporter construct was used to transfect the highly transfectable MM1s cells that express the endogenous miRs following up-modulated p53 expression.
MM1s cells were cotransfected with 1 μg of pGL3 firefly luciferase reporter vector, 0.1 μg of the phRL-SV40 control vector (Promega), and 100 nM miRNA precursors (Ambion) using nucleoporation (LONZA) Cell Line Nucleofector Kit V. Firefly and Renilla luciferase activities were measured consecutively by using the Dual Luciferase Assay (Promega) 24 hr after transfection. Each reporter plasmid was transfected at least twice (on different days) and each sample was assayed in triplicate. […]

[4] = system: IGF-1R and IGF-1 in MM1s cells; assay: Western blot of IGF-1R and IGF-1 after miRNA transfection; details: pre-miRNA transfected
Description: FIG. 6A, FIG. 6B: Western blot showing IGF-1R and IGF-1 expression after miR-192 and miR-215 transfection using pre (FIG. 6A) and ASOs (FIG. 6B) for miR-192, miR-215, miR-194 and Scr in MM1s cells treated for 12 hr with Nutlin-3a.
Samples were extracted in 15 mM Tris.Cl, pH 7.5/120 mM NaCl/25 mM KCl/2 mM EGTA/0.1 mM DTT/0.5% Triton X-100/[…] leupeptin/0.5 mM PMSF. Total protein (35 μg) from each sample was separated on a 4-20% Tris-HCl-Criterion precast gel Bio-Rad (cat#345-0032, Hercules, Calif.) and transferred to a poly(vinylidene difluoride) filter (Millipore). The filter was blocked in 5% nonfat dry milk, incubated with the specific antibody, washed, and probed with secondary antibody IgG conjugated to horseradish peroxidase (Santa Cruz Biotechnology), and developed with enhanced chemiluminescence (Amersham Pharmacia). […]

Substance | expression of MDM2 protein [1] | level of p53 and p21 [1] | p53 protein in cells not treated with MI-219 [2] | p53 re-expression with p21 and Puma up-regulation [2] | luciferase expression of HDM2 3′UTR reporter [3] | IGF-1R and IGF-1 protein levels [4]
miR-215: microRNA, p53-activated, down-regulated in MM; transfected as miRNA precursor (Ambion) or lentivector; SEQ ID NO:58 (AUGACCUAUGAAUUGACAGAC; listed as RNA, chemistry not given here; listed as Homo sapiens) | dramatically decreased | significantly increased | p53 became detectable | Dramatic p53 re-expression | significantly diminished | decreased
miR-192: microRNA, p53-activated, down-regulated in MM; transfected as miRNA precursor (Ambion) or lentivector; SEQ ID NO:56 (CUGACCUAUGAAUUGACAGCC; listed as RNA, chemistry not given here; listed as Homo sapiens) | dramatically decreased | significantly increased | p53 became detectable | Dramatic p53 re-expression | significantly diminished | decreased
